Results on three compounds are retold here after BindingDB's records for doi:10.1016/j.bmcl.2013.01.064 (Bristol Myers Squibb, 2013).

Sequence of Potassium voltage-gated channel subfamily A member 5 (P22460 whole entry): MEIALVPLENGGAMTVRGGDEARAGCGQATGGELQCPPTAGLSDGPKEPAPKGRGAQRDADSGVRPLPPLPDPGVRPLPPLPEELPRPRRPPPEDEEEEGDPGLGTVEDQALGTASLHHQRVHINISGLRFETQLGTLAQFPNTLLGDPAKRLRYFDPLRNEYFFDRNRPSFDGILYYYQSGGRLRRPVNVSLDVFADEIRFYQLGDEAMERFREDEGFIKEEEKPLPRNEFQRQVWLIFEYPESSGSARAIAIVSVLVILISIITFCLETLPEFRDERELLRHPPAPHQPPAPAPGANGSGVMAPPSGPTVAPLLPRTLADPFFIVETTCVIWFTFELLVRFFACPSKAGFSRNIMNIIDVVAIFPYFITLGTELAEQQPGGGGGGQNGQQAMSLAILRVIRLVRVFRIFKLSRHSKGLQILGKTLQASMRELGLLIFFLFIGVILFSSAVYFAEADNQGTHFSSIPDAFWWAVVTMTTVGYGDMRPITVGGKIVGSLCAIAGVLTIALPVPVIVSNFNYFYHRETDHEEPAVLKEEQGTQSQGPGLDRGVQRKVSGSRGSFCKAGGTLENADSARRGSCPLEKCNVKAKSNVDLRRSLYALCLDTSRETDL

This test concerns the target Potassium voltage-gated channel subfamily A member 5 (Homo sapiens, UniProt P22460). Nature of the test: Antagonist activity at human Kv1.5 expressed in mouse L929 cells assessed as inhibition of delayed rectifier repolarization current by patch clamp assay. For orientation: Patch clamp records ionic current or voltage across a cell membrane.
For orientation: IC50 means the concentration at which inhibition is half-maximal. Turning to `CC1=Nc2cc(C(F)(F)F)nn2[C@H](c2ccc(Cl)c(Cl)c2)C1c1ncnn1C1CCC(C(F)(F)F)CC1` (stereo partly drawn), the concentration for half-maximal inhibition (IC50) was determined as 607 nM.

With `CC1=Nc2ccnn2[C@H](c2ccc(Cl)c(Cl)c2)C1c1ncnn1C(C)(C)C` (stereo partly drawn), the IC50 amounted to 223 nM.

On to `CCOc1cccc(-n2ncnc2C2C(C)=Nc3cc(C(F)(F)F)nn3[C@@H]2c2ccc(Cl)c(Cl)c2)n1` (stereo partly drawn), for which the IC50 came to 223 nM.
